≈ marks a conversion by molar mass, not a printed value. Read-outs that look alike come from different tables or passages of the source. Bridge positions count the residues as written; N and C are the ends. Square brackets hold non-standard residues; d marks the D form. Peptide text beside a SMILES is read from it. * marks the point of attachment. X29 = Cc1ccc(CO[C@@H](CN)C(=O)*)cc1; X26 = NCC[C@H](OCC1CCCCC1)C(=O)*; dCha = N[C@H](CC1CCCCC1)C(=O)O; Dab = NCC[C@H](N)C(=O)O; Dap = NC[C@H](N)C(=O)O
How the values were obtained:
Assay type in all cases: cell-based
[1] = system: Acinetobacter baumannii
Summary of the method: (§1)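 MIC (μg/mL) by susceptibility testing against up to nine strains per species, including strains with elevated Polymyxin MICs and resistant isolates.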

[2] = system: Escherichia coli
Summary of the method: as §1

[3] = system: Klebsiella pneumoniae
Summary of the method: as §1

[4] = system: Pseudomonas aeruginosa
Summary of the method: as §1

MIC A. baumanii ATCC BAA-747 [1] [µg/mL] | MIC A. baumanii NCTC 13424 [1] [µg/mL] | MIC E. coli 058 [2] [µg/mL] | MIC E. coli ATCC 25922 [2] [µg/mL] | MIC K. pneumoniae ATCC 13882 [3] [µg/mL] | MIC P. aeruginosa ATCC 27853 [4] [µg/mL] | MIC P. aeruginosa CCUG 59347 [4] [µg/mL] | MIC A. baumanii 053 [1] [µg/mL] | MIC A. baumanii 056 [1] [µg/mL] | MIC E. coli 061 [2] [µg/mL] | MIC K. pneumoniae 063 [3] [µg/mL] | MIC K. pneumoniae 065 [3] [µg/mL] | MIC P. aeruginosa 068 [4] [µg/mL] | MIC P. aeruginosa 070 [4] [µg/mL] | SMILES | other results
0.25 (≈ 0.218 µM) | 0.06 (≈ 0.0523 µM) | 4 (≈ 3.49 µM) | 0.25 (≈ 0.218 µM) | 0.25 (≈ 0.218 µM) | 0.25 (≈ 0.218 µM) | 0.25 (≈ 0.218 µM) | – | – | – | – | – | – | – | Cc1ccc(CO[C@@H](CN)C(=O)N[C@H](C(=O)N[C@@H](CN)C(=O)N[C@H]2CCNC(=O)[C@H]([C@@H](C)O)NC(=O)[C@H](CCN)NC(=O)[C@H](CCN)NC(=O)[C@H](CC(C)C)NC(=O)[C@@H](CC3CCCCC3)NC(=O)[C@H](CCN)NC2=O)[C@@H](C)O)cc1 [Example 78, (S)-3-amino-2-((4-methylbenzyl)oxy) propanoyl L-Thr-L-Dap-polymyxin [D-cyclohexylalanine]-6 heptapeptide] (X29-T[Dap][Dab][Dab][dCha]L[Dab][Dab]T; lactam 3-C) | –
0.125 (≈ 0.113 µM) | 0.125 (≈ 0.113 µM) | 2 (≈ 1.8 µM) | 0.125 (≈ 0.113 µM) | 0.25 (≈ 0.225 µM) | 0.25 (≈ 0.225 µM) | 0.5 (≈ 0.45 µM) | 64 (≈ 57.6 µM) | 32 (≈ 28.8 µM) | 8 (≈ 7.2 µM) | 8 (≈ 7.2 µM) | 2 (≈ 1.8 µM) | 2 (≈ 1.8 µM) | 2 (≈ 1.8 µM) | CC(C)CCC(CCN)C(=O)N[C@H](C(=O)N[C@@H](CN)C(=O)N[C@H]1CCNC(=O)[C@H]([C@@H](C)O)NC(=O)[C@H](CCN)NC(=O)[C@H](CCN)NC(=O)[C@H](CC(C)C)NC(=O)[C@@H](CC2CCCCC2)NC(=O)[C@H](CCN)NC1=O)[C@@H](C)O (single isomer, unassigned; isomer 2) [Example 80, 2-(2-aminoethyl)-5-methylhexanoyl L-Thr-L-Dap-polymyxin [D-cyclohexylalanine-6]heptapeptide. isomer 2] | MIC E. coli NCTC 9001 [2]: 0.03 µg/mL (≈ 0.027 µM); MIC K. pneumoniae ATCC 4352 [3]: 0.06 µg/mL (≈ 0.054 µM)
0.25 (≈ 0.217 µM) | 0.25 (≈ 0.217 µM) | 8 (≈ 6.94 µM) | 0.125 (≈ 0.108 µM) | 0.25 (≈ 0.217 µM) | 0.25 (≈ 0.217 µM) | 0.5 (≈ 0.434 µM) | >32 | 32 (≈ 27.8 µM) | 8 (≈ 6.94 µM) | 32 (≈ 27.8 µM) | 4 (≈ 3.47 µM) | – | 8 (≈ 6.94 µM) | CC(C)C[C@@H]1NC(=O)[C@@H](CC2CCCCC2)NC(=O)[C@H](CCN)NC(=O)[C@@H](NC(=O)[C@H](CN)NC(=O)[C@@H](NC(=O)[C@H](CCN)OCC2CCCCC2)[C@@H](C)O)CCNC(=O)[C@H]([C@@H](C)O)NC(=O)[C@H](CCN)NC(=O)[C@H](CCN)NC1=O [Example 84, (S)-4-amino-2-(cyclohexyl-methoxy) butanoyl L-Thr-L-Dap-polymyxin [D-cyclohexylalanine-6]heptapeptide.] (X26-T[Dap][Dab][Dab][dCha]L[Dab][Dab]T; lactam 3-C) | –

Further lines, the compound ahead of its results:

SMILES | MIC A. baumanii ATCC BAA-747 [1] [µg/mL] | MIC A. baumanii NCTC 13424 [1] [µg/mL] | MIC E. coli 058 [2] [µg/mL] | MIC E. coli ATCC 25922 [2] [µg/mL] | MIC K. pneumoniae ATCC 13882 [3] [µg/mL] | MIC P. aeruginosa ATCC 27853 [4] [µg/mL] | MIC P. aeruginosa CCUG 59347 [4] [µg/mL] | MIC A. baumanii 053 [1] [µg/mL] | MIC A. baumanii 056 [1] [µg/mL] | MIC E. coli 061 [2] [µg/mL] | MIC K. pneumoniae 063 [3] [µg/mL] | MIC K. pneumoniae 065 [3] [µg/mL] | MIC P. aeruginosa 068 [4] [µg/mL] | MIC P. aeruginosa 070 [4] [µg/mL] | other results
CC(C)C[C@@H]1NC(=O)[C@@H](CC2CCCCC2)NC(=O)[C@H](CCN)NC(=O)[C@@H](NC(=O)[C@H](CCN)NC(=O)[C@@H](NC(=O)CC(CN)c2ccccc2)[C@@H](C)O)CCNC(=O)[C@H]([C@@H](C)O)NC(=O)[C@H](CCN)NC(=O)[C@H](CCN)NC1=O (single isomer, unassigned; isomer 1) [Example 56, 4-amino-3-phenylbutanoyl polymyxin [D-cyclohexylalanine]-6 nonapeptide isomer 1] | – | – | – | – | – | – | – | – | – | – | – | – | – | – | MIC A. baumanii ATCC BAA-747 ([1]; strain ATCC BAA-747): 0.125 µg/mL (≈ 0.111 µM); MIC A. baumanii NCTC 13424 ([1]; strain NCTC 13424): 0.125 µg/mL (≈ 0.111 µM); MIC E. coli 058 ([2]; strain 058): 16 µg/mL (≈ 14.2 µM); MIC E. coli ATCC 25922 ([2]; strain ATCC 25922): 0.25 µg/mL (≈ 0.221 µM); MIC K. pneumoniae 065 ([3]; strain 065): 16 µg/mL (≈ 14.2 µM); MIC K. pneumoniae ATCC 13882 ([3]; strain ATCC 13882): 0.25 µg/mL (≈ 0.221 µM); MIC P. aeruginosa ATCC 27853 ([4]; strain ATCC 27853): 0.25 µg/mL (≈ 0.221 µM); MIC P. aeruginosa CCUG 59347 ([4]; strain CCUG 59347): 0.5 µg/mL (≈ 0.442 µM)
CC(C)C[C@@H]1NC(=O)[C@@H](CC2CCCCC2)NC(=O)[C@H](CCN)NC(=O)[C@@H](NC(=O)[C@H](CN)NC(=O)[C@@H](NC(=O)CCC(N)c2ccccc2)[C@@H](C)O)CCNC(=O)[C@H]([C@@H](C)O)NC(=O)[C@H](CCN)NC(=O)[C@H](CCN)NC1=O (single isomer, unassigned; isomer 1) [Example 60, 4-amino-4-phenylbutanoyl L-Thr-L-Dap-polymyxin [D-cyclohexylalanine]-6 heptapeptide. Isomer 1] | 0.5 (≈ 0.448 µM) | 1 (≈ 0.896 µM) | 16 (≈ 14.3 µM) | 0.5 (≈ 0.448 µM) | 0.5 (≈ 0.448 µM) | – | 1 (≈ 0.896 µM) | – | – | – | – | – | – | – | –
CCCCCC/C=C/c1ccc(C[C@H]2NC(=O)[C@H](CCN)NC(=O)[C@@H](NC(=O)[C@H](CN)NC(=O)[C@@H](NC(=O)C3CNCC(CC(C)C)C3)C(C)O)CCNC(=O)[C@H]([C@@H](C)O)NC(=O)[C@H](CCN)NC(=O)[C@H](CCN)NC(=O)[C@H](CC(C)C)NC2=O)cc1 (single isomer, unassigned; isomer 2) [Example 18, (trans-5-(isobutyl-piperidine)-3-carbonyl L-Thr-L-Dap-polymyxin [D-(4-(E)-oct-1-enyl)-Phe]-6]heptapeptide Isomer 2] | 2 (≈ 1.63 µM) | – | 2 (≈ 1.63 µM) | 2 (≈ 1.63 µM) | – | 2 (≈ 1.63 µM) | – | 2 (≈ 1.63 µM) | 2 (≈ 1.63 µM) | 2 (≈ 1.63 µM) | 4 (≈ 3.26 µM) | 2 (≈ 1.63 µM) | 4 (≈ 3.26 µM) | 4 (≈ 3.26 µM) | MIC E. coli 059 [2]: 1 µg/mL (≈ 0.815 µM); MIC E. coli 060 [2]: 2 µg/mL (≈ 1.63 µM); MIC K. pneumoniae 062 [3]: 2 µg/mL (≈ 1.63 µM); MIC K. pneumoniae 064 [3]: 4 µg/mL (≈ 3.26 µM); MIC K. pneumoniae 066 [3]: 2 µg/mL (≈ 1.63 µM); MIC K. pneumoniae 067 [3]: 4 µg/mL (≈ 3.26 µM); MIC K. pneumoniae ATCC 4352 [3]: 2 µg/mL (≈ 1.63 µM)
CC(C)C[C@@H]1NC(=O)[C@@H](CC2CCCCC2)NC(=O)[C@H](CCN)NC(=O)[C@@H](NC(=O)[C@H](CN)NC(=O)[C@@H](NC(=O)C(CCN)Cc2ccccc2F)[C@@H](C)O)CCNC(=O)[C@H]([C@@H](C)O)NC(=O)[C@H](CCN)NC(=O)[C@H](CCN)NC1=O (single isomer, unassigned; isomer 2) [Example 65, 4-amino-2-(2-fluorobenzyl) butanoyl L-Thr-L-Dap-polymyxin [D-cyclohexylalanine]-6 heptapeptide. Isomer 2] | 0.25 (≈ 0.218 µM) | 1 (≈ 0.871 µM) | 4 (≈ 3.48 µM) | 0.25 (≈ 0.218 µM) | 0.25 (≈ 0.218 µM) | 0.5 (≈ 0.435 µM) | 0.5 (≈ 0.435 µM) | >64 | >64 | 16 (≈ 13.9 µM) | 16 (≈ 13.9 µM) | 2 (≈ 1.74 µM) | 2 (≈ 1.74 µM) | 2 (≈ 1.74 µM) | –

From patent US12146004B2, “Polymyxin compounds and uses thereof” (priority 2014, dated 2024)
